Source: patent US5869500A, “Pyridone compounds useful in treating Alzheimer's disease” (Hoffmann-La Roche Inc., priority 1996, dated 1999)
Counter-ions that a name gives are not always drawn.

Columns and labels:
[1] = system: Aβ production in HEK cells over-expressing mutated β-APP (SFAD); test: Aβ production inhibition, sandwich-ELISA in HEK cells, over-expressed mutated β-APP (SE-SFAD); type: cell-based, human; conditions: Homo sapiens, HEK293, HEK cells; for IC50: based on the respective plateau of maximum inhibition; for Emax: maximum inhibition plateau, read-out: SE-SFAD max. inhibition %
How it was run: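 HEK cells expressing recombinant human wild-type or mutated (SFAD) β-APP treated with compound for 24 to 48 hours at 37° C, 10% CO2. IC50 based on plateau of maximum inhibition.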

[2] = system: Aβ production in HEK cells over-expressing Wild type β-APP; test: Aβ production inhibition, sandwich-ELISA in HEK cells which over-express Wild type β-APP (SE-WT); type: cell-based, human; conditions: Homo sapiens; for IC50: HEK293, based on the respective plateau of maximum inhibition; for Emax: HEK293, maximum inhibition plateau, read-out: SE-WT max. inhibition %
Experimental: The effect of test substances on the inhibition of Aβ-amyloid production can be measured in the supernatant of cell cultures of β-APP expressed cells using ELISA tests or other quantitative determination methods for β-APP degradation products. Typically, 8×10^5 cells (e.g. HEK cells, which express recombinant human β-APP variants) are plated out in each well of a culture dish having 24 wells in growth media such as e.g. OPTIMEM (Gibco) and the test compound is then added. After an incubation period of 24 to 48 hours at 37° C. in a 10% CO2 atmosphere the supernatant is removed from the cell cultures and the β-APP degradation products (e.g. Aβ or β-[…]) are determined with the aid of ELISA (or sandwich ELISA) analysis or by means of quantitative immunoprecipitation (after metabolic radiolabelling of the cell proteins). Typically, 300 μl of the cell supernatant are tested according to the state of the art for ELISA tests in culture dishes having 96 wells. In the case of sandwich ELISA for Aβ, the binding antibody can be directed against the first 16 amino acids of Aβ-peptide (e.g. 6E10 Senetek, Maryland Heights, Mo.) and the detection antibody can be directed against amino acids 17-40 or 17-42 of Aβ and carries a detection system such as e.g. peroxidase. A simple ELISA test with an antibody, e.g. 22C11 (Boehringer Mannheim), can be used as the test for […]; the second antibody can be an anti-(mouse) Ig having a detection system, such as e.g. peroxidase. The peroxidase reaction can be carried out e.g. using a TMB substrate (BioRAD) and the measurements can be carried out at 650 nm using an ELISA reading apparatus. […] SE-SFAD signifies the Aβ production inhibition measured using sandwich-ELISA in HEK cells, SFAD signifies over-expressed mutated β-APP, and SE-WT signifies the Aβ production inhibition measured using sandwich-ELISA in HEK cells which over-express Wild type β-APP. The IC50 values are based on the respective plateau of maximum inhibition.

Row | SMILES | IC50 [1] | Emax [1] | IC50 [2] | Emax [2]
1 | COCCN(C(=O)c1cc(-c2ccc(OCc3ccccc3)cc2)c(=O)n2ccc3cc(Br)sc3c12)c1ccccc1 [Compound 77, 8-(4-Benzyloxy-phenyl)-2-bromo-7-oxo-7H-thieno[2,3-a]quinolizine-10-carboxylic acid (2-methoxy-ethyl)-phenyl-amide] | 0.2 µM | 80% | 0.2 µM | 100%
2 | CN1CCC[C@H]1COC(=O)c1cc(-c2ccccc2)c(=O)n2ccc3ccsc3c12 [Compound 28, 1-Methyl-pyrrolidin-2-(S)-yl-methyl 7-oxo-8-phenyl-7H-thieno[2,3-a]-quinolizine-10-carboxylate] | 9 µM | 100% | 2 µM | 100%
3 | COC1CN(C(=O)c2cc(-c3ccccc3)c(=O)n3ccc4ccc(Cl)cc4c23)C1 [Compound 40, 10-Chloro-1-(3-methoxy-azetidine-1-carbonyl)-3-phenyl-pyrido-[2,1-a]isoquinolin-4-one] | 6.8 µM | 100% | 7 µM | 70%
4 | O=C(OCCn1ccnc1)c1cc(-c2ccccc2)c(=O)n2ccc3ccsc3c12 [Compound 2, 2-Imidazol-1-yl-ethyl 7-oxo-8-phenyl-7H-thieno[2,3-a]quinolizine-10-carboxylate] | 10 µM | 50% | 1.2 µM | 70%
5 | O=C(ON1C(=O)CCC1=O)c1cc(-c2ccccc2)c(=O)n2ccc3ccsc3c12 [Compound 43, 2,5-Dioxo-pyrrolidin-1-yl 7-oxo-8-phenyl-7H-thieno[2,3-a]quinolizine-10-carboxylate] | 2 µM | 50% | 5 µM | 70%
6 | CN(C)CCOC(=O)c1cc(-c2ccccc2)c(=O)n2ccc3ccsc3c12 [Compound 53, 2-Dimethylamino-ethyl 7-oxo-8-phenyl-7H-thieno[2,3-a]quinolizine-10-carboxylate hydrochloride] | 9.5 µM | 80% | 8 µM | 100%
7 | O=C(c1cc(-c2ccccc2)c(=O)n2ccc3ccsc3c12)n1ccnc1 [Compound 52, 10-(Imidazole-1-carbonyl)-8-phenyl-thieno[2,3-a]quinolizin-7-one] | 5 µM | 25% | 12 µM | 45%
8 | COC1CN(C(=O)c2cc(-c3ccccc3)c(=O)n3ccc4ccsc4c23)C1 [Compound 39, 10-(3-Methoxy-azetidine-1-carbonyl)-8-phenyl-thieno[2,3-a]quinolizin-7-one] | 7 µM | 30% | 6 µM | 50%
9 | COCC1CCCN1C(=O)c1cc(-c2ccccc2)c(=O)n2ccc3ccc(Cl)cc3c12 (stereo not drawn) [Compound 37, 10-Chloro-1-(2-methoxymethyl-pyrrolidine-1-carbonyl)-3-phenyl-pyrido [2,1-a]isoquinolin-4-one] | 7 µM | 100% | 1 µM | 70%
10 | O=c1c(-c2ccccc2)cc(-c2nc(C3CC3)no2)c2c3sccc3ccn12 [Compound 62, 10-(3-Cyclopropyl-[1,2,4]oxadiazol-5-yl)-8-phenyl-thieno[2,3-a]-quinolizin-7-one] | 0.5 µM | 65% | 2.7 µM | 80%
11 | Cc1cc(C)n(C(=O)c2cc(-c3ccccc3)c(=O)n3ccc4ccsc4c23)n1 [Compound 45, 10-(3,5-Dimethyl-pyrazole-1-carbonyl)-8-phenyl-thieno[2,3-a]-quinolizin-7-one] | 0.9 µM | 40% | 0.5 µM | 30%
12 | COCCN(CCOC)C(=O)c1cc(-c2ccc(C(C)(C)C)cc2)c(=O)n2ccc3ccsc3c12 [Compound 109, 8-(4-tert-Butyl-phenyl)-7-oxo-7H-thieno[2,3-a]quinolizine-10-carboxylicacid bis-(2-methoxy-ethyl)-amide] | 7.7 µM | 100% | 0.8 µM | 100%
